Read-outs that look alike come from different tables or passages of the source.

The test system of series [1] is Parkinson's Disease. To be noted: human, in vivo; cited from earlier work.
The test system of series [2] is Parkinson's Disease. Particulars: 800 mild, early Parkinson's Disease patients; cited from earlier work.
The subject of series [3] is Parkinson's Disease. Nature of the series: Parkinson's patients case studies (oral nutrients plus IV infusions).
In series [4] the test system is Parkinson's Disease. Particulars: cited from earlier work.
For series [5], the system named is Parkinson's Disease. To be noted: after five years; cited from earlier work.
The conditions of series [6]: cited from earlier work.
The conditions of series [7]: in vivo; cited from earlier work.
Series [8] has as its system mouse model of Bulbar ALS. Particulars: oral administration; cited from earlier work.
Series [9] has as its system Parkinson's Disease. To be noted: in vivo; cited from earlier work.
Series [10] relates to Parkinson's Disease. To be noted: in vivo; cited from earlier work. This is another data set of the same source.

With `Cc1ccc(C(=O)c2cc(O)c(O)c([N+](=O)[O-])c2)cc1` [tolcapone], in the series on Parkinson's Disease [1], the “deaths from liver failure” value is reported as “three”.

With `C#CCN(C)[C@H](C)Cc1ccccc1` [Selegiline], in the series with Parkinson's Disease [2], the “delay of the progression of motor symptoms” value was “about nine”.

As to `N[C@@H](CCC(=O)N[C@@H](CS)C(=O)NCC(=O)O)C(=O)O` [Glutathione, N—(N-L-gamma-glutamyl-L-cysteinyl)glycine], the tremor result in the series on Parkinson's Disease [3] (Case Study 1, IV Glutathione push once weekly, after 6 months) is recorded as “slightly improved”.

For `CCCN(CCC)CCc1cccc2c1CC(=O)N2` [ropinerole], the effectiveness in comparison entry with Parkinson's Disease [4] (early stage Parkinson's Disease, versus levodopa) was “as effective as levodopa”. The effectiveness in comparison result with Parkinson's Disease [4] (versus bromocriptine (Parlodel)) is “more effective than bromocriptine”. Also, in the series on Parkinson's Disease [5], the “patients who developed dyskinesia” value is listed as 20% and the “severe form among those who developed dyskinesia” value is 8%.

With Phosphatidylcholine [PC], the oral absorption entry in series [6] (taken orally with meals) is reported as “up to 90 % per 24 hrs”. Further, the “time over which blood levels peak” value in series [6] (taken orally) is 8 to 12 h.

Take `N[C@@H](Cc1ccc(O)c(O)c1)C(=O)O` [levodopa, Levodopa]: the “tolerance of drug by patient” value in the series with Parkinson's Disease [3] (Case Study 6, before protocol) is recorded as “intolerant”.

On to carbidopa/levodopa, for which the “half-life compared with dopamine agonists” value in [7] is “shorter half-life”.

As to `CCCC(=O)[O-].[Na+]` [sodium butyrate], the neurological phenotypes entry in series [8] is “successfully ameliorated”.

On to `CCCN[C@H]1CCc2nc(N)sc2C1` [pramipexole], for which, in the series on Parkinson's Disease [9], the “patients completely free from motor complications” value is given as 72%, the “patients in whom dyskinesias developed” value was 10% and the “patients who developed motor complications” value is given as 28%.

Consider botulinum toxin, for which, in the series on Parkinson's Disease [10], the effect on tremors result was “without any substantial reduction in tremors”.

The values are drawn from patent publication US20070004639A1, “Methods and compositions for treating Parkinson's disease” (BodyBio, Inc., priority 2005, published 2007).
